Source: the supplement of paper PMC10307832

Key:
Experiment in all cases: relative viability (nuclei count vs DMSO), 5 days (fraction); higher = more cells survive
OSI-027 + Decitabine = compound: COc1cccc2cc(-c3nc([C@H]4CC[C@H](C(=O)O)CC4)n4ncnc(N)c34)[nH]c12 [OSI-027] + Nc1ncn([C@H]2C[C@H](O)[C@@H](CO)O2)c(=O)n1 [Decitabine] (partner 2 µM)
In short: (§1)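 Medians of duplicate plates are given as relative viability. That measure is the nuclei count in treated wells divided by the count in vehicle wells. Counts were taken on 4× images of lung cancer cell lines in 1536-well plates, 5 days after pin-tool dosing the day after seeding with one drug alone or a fixed anchor-drug dose plus five library-drug doses (not always all listed) in √10 steps.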

OSI-027 + Alpelisib = compound: COc1cccc2cc(-c3nc([C@H]4CC[C@H](C(=O)O)CC4)n4ncnc(N)c34)[nH]c12 [OSI-027] + Cc1nc(NC(=O)N2CCC[C@H]2C(N)=O)sc1-c1ccnc(C(C)(C)C(F)(F)F)c1 [Alpelisib] (partner 2 µM)
In short: as §1

Vemurafenib + Pemetrexed = compound: CCCS(=O)(=O)Nc1ccc(F)c(C(=O)c2c[nH]c3ncc(-c4ccc(Cl)cc4)cc23)c1F [Vemurafenib] + Nc1nc2[nH]cc(CCc3ccc(C(=O)N[C@@H](CCC(=O)O)C(=O)O)cc3)c2c(=O)[nH]1 [Pemetrexed] (partner 0.2 µM)
In short: as §1

Alpelisib + AZD7762 = compound: Cc1nc(NC(=O)N2CCC[C@H]2C(N)=O)sc1-c1ccnc(C(C)(C)C(F)(F)F)c1 [Alpelisib] + NC(=O)Nc1cc(-c2cccc(F)c2)sc1C(=O)N[C@H]1CCCNC1 [AZD7762] (partner 0.2 µM)
In short: as §1

| Cell Line | relative viability (OSI-027 + Decitabine; first compound 0.01 µM) | relative viability (OSI-027 + Decitabine; first compound 0.03162 µM) | relative viability (OSI-027 + Decitabine; first compound 0.1 µM) | relative viability (OSI-027 + Decitabine; first compound 0.3162 µM) | relative viability (OSI-027 + Decitabine; first compound 1 µM) | relative viability (OSI-027 + Alpelisib; first compound 0.01 µM) | relative viability (OSI-027 + Alpelisib; first compound 0.03162 µM) | relative viability (OSI-027 + Alpelisib; first compound 0.1 µM) | relative viability (OSI-027 + Alpelisib; first compound 0.3162 µM) | relative viability (OSI-027 + Alpelisib; first compound 1 µM) | relative viability (Vemurafenib + Pemetrexed; first compound 0.03162 µM) | relative viability (Vemurafenib + Pemetrexed; first compound 0.1 µM) | relative viability (Vemurafenib + Pemetrexed; first compound 0.3162 µM) | relative viability (Vemurafenib + Pemetrexed; first compound 1 µM) | relative viability (Alpelisib + AZD7762; first compound 0.04 µM) | relative viability (Alpelisib + AZD7762; first compound 0.1265 µM) | relative viability (Alpelisib + AZD7762; first compound 0.4 µM) | relative viability (Alpelisib + AZD7762; first compound 1.265 µM) | relative viability (Alpelisib + AZD7762; first compound 4 µM) |
| --- | --- | --- | --- | --- | --- | --- | --- | --- | --- | --- | --- | --- | --- | --- | --- | --- | --- | --- | --- |
| EPLC-272H | 0.324 | 0.321 | 0.344 | 0.298 | 0.256 | 0.889 | 0.866 | 0.828 | 0.619 | 0.599 | 0.319 | 0.336 | 0.396 | 0.328 | 0.237 | 0.251 | 0.24 | 0.271 | 0.186 |
| HARA | 0.529 | 0.432 | 0.558 | 0.422 | 0.346 | 0.81 | 0.655 | 0.785 | 0.495 | 0.291 | 0.24 | 0.234 | 0.2 | 0.246 | 0.364 | 0.334 | 0.398 | 0.249 | 0.442 |
| LU99A | 0.773 | 0.966 | 0.675 | 0.485 | 0.216 | 0.486 | 0.455 | 0.312 | 0.193 | 0.204 | 0.229 | 0.196 | – | 0.199 | 0.335 | 0.361 | 0.408 | 0.365 | 0.398 |
| NCI-H2087 | 0.268 | 0.228 | 0.24 | 0.214 | 0.16 | 1.12 | 1.21 | 0.947 | 0.625 | 0.398 | 0.646 | 0.63 | 0.544 | 0.678 | 1.39 | 1.3 | 1.59 | 1.22 | 1.36 |
| NCI-H1734 | 0.559 | 0.595 | 0.503 | 0.265 | 0.417 | 0.642 | 0.694 | 0.63 | 0.517 | 0.259 | 0.396 | 0.382 | 0.385 | 0.399 | 0.604 | 0.556 | 0.584 | 0.397 | 0.209 |
| HCC-44 | 0.903 | 0.973 | 0.93 | 0.945 | 0.777 | 0.795 | 0.775 | 0.738 | 0.574 | 0.215 | 0.617 | 0.609 | 0.654 | 0.625 | 1 | 1.02 | 1.02 | 1.03 | 1.07 |
| NCI-H2170 | 0.459 | 0.491 | 0.463 | 0.421 | 0.31 | 0.856 | 0.888 | 0.593 | 0.688 | 0.355 | 0.272 | – | 0.265 | 0.289 | 0.865 | 0.712 | 0.891 | 0.632 | 0.481 |
